Test results reported in US20220000117A1, “METHOD FOR CONTROLLING DISEASES IN SMALL GRAIN CEREALS, SEED OF SMALL GRAIN CEREALS, AND METHOD FOR SUPPRESSING LODGING DAMAGE IN SMALL GRAIN CEREALS” (KUMIAI CHEMICAL INDUSTRY CO., LTD., priority 2019, published 2022).

Legend:
[1] = system: powdery mildew; assay: Test Example 9: control test of wheat powdery mildew, cup in greenhouse, inoculated, Norin No. 61 (Tables 10 to 14); format: in vivo, Blumeria graminis; set-up: key to Degree of Disease Occurrence: Σ(index×leaves)/(4×leaves investigated)×100; 0 = no disease, 100 = max
Description: (§1) Degree of Disease Occurrence=Σ(Index×Number of Leaves of Index)/(4×Number of Investigated Leaves)×100 (1)
Seed of wheat (variety: Norin No. 61) was used, and 100 ml of suspension waters each containing the compound shown in Table 10 at an amount shown in […] (synthesis was performed in accordance with a known method, a solution dissolved in DMSO or formulated 10% wettable powder was used) were prepared. The seed having a mass of 1 kg of wheat was mixed into the suspension water with a chemical treated amount shown in Table 10, and air-dried, and then, 5 seeds were sown in a plastic cup having a diameter of 6 cm containing river sand and managed in a greenhouse. In Comparative Examples, 20 ml of the suspension water of an active ingredient, which had been adjusted to have a concentration shown in Table 10, was sprayed in a frame of 45 cm×45 cm in which a pot of wheat seedlings was placed (corresponding to 1000 L/ha) 14 days after seeding. On day 14 after seeding, conidiospores of powdery mildew were sifted over leaves of wheat seedlings and inoculated onto the leaves (after the sprayed liquid was dried in the case of Comparative Examples), a lesion area ratio of powdery mildew in a first leaf was investigated 21 days after seeding according to the criteria in Table 1, and the degree of disease occurrence was calculated by the above calculation formula (1).

[2] = system: septoria leaf blotch; assay: Test Example 10: control test of septoria leaf blotch of wheat, cup in greenhouse, inoculated, variety ARKEOS (Tables 15 to 19); format: in vivo, Septoria tritici; conditions: Table 16; for Degree of Disease Occurrence: untreated 57.1; for Disease Leaf Rate (%): untreated 93.3
Description: as §1
Seed of wheat (variety: ARKEOS) was used, and 100 ml of suspension waters each containing the compound shown in Table 15 at an amount shown in Table 15 (synthesis was performed in accordance with a known method, a liquid dissolved in a small amount of DMSO or formulated 10% wettable powder was used) were prepared. Seed having a mass of 1 kg was mixed into the suspension water with a rate shown in Examples of Table 15, and air-dried, and then, 5 seeds were sown in a plastic cup having a diameter of 6 cm containing mixed soil of river sand and horticultural soil and managed in a greenhouse. In Comparative Examples, 20 ml of suspension water of an active ingredient, which had been adjusted to have a concentration shown in Table 15 to 19, was sprayed in a frame of 45 cm×45 cm in which a pot of wheat seedlings was placed (corresponding to 1000 L/ha) 14 days after seeding. On day 14 after seeding, a spore suspension in which conidiospores of septoria leaf blotch are suspended was sprayed and inoculated on leaves of wheat seedlings (after the sprayed liquid was dried in the case of Comparative Examples), a lesion area ratio of septoria leaf blotch in a second leaf was investigated approximately 35 days after seeding according to the criteria in Table 1, and the degree of disease occurrence was calculated by the above calculation formula (1).

[3] = Table 10 run, Foliage Treatment, spray 10 ppm (10 g/ha) day 14, first leaf, 21 days after seeding
[4] = Table 10 run, Foliage Treatment, spray 50 ppm (50 g/ha) day 14, first leaf, 21 days after seeding
[5] = Table 10 run, Foliage Treatment, spray 100 ppm (100 g/ha) day 14, first leaf, 21 days after seeding
[6] = Table 10 run, Seed Treatment 0.1 g/Seed 1 kg (10 g/ha), first leaf, 21 days after seeding
[7] = Table 10 run, Seed Treatment 0.5 g/Seed 1 kg (50 g/ha), first leaf, 21 days after seeding
[8] = Table 10 run, Seed Treatment 1 g/Seed 1 kg (100 g/ha), first leaf, 21 days after seeding
[9] = Foliage Treatment, spray 100 ppm suspension water (corresponding to 100 g/ha) 14 days after seeding
[10] = Seed Treatment, 1 g/Seed 1 kg (corresponding to 100 g/ha)
[11] = Table 11 run (different day), Foliage Treatment, spray 10 ppm (10 g/ha)
[12] = Table 11 run (different day), Foliage Treatment, spray 50 ppm (50 g/ha)
[13] = Table 11 run (different day), Seed Treatment 0.1 g/Seed 1 kg (10 g/ha)
[14] = Table 11 run (different day), Seed Treatment 0.5 g/Seed 1 kg (50 g/ha)
[15] = Table 13 run (different day), Foliage Treatment, spray 10 ppm (10 g/ha)
[16] = Table 13 run (different day), Foliage Treatment, spray 50 ppm (50 g/ha)
[17] = Table 13 run (different day), Seed Treatment 0.1 g/Seed 1 kg (10 g/ha)
[18] = Table 13 run (different day), Seed Treatment 0.5 g/Seed 1 kg (50 g/ha)
[19] = Table 13 run (different day), Foliage Treatment, spray 5 ppm (5 g/ha)
[20] = Table 13 run (different day), Seed Treatment 0.05 g/Seed 1 kg (5 g/ha)

SMILES	Degree of Disease Occurrence [1, 12]	Disease Leaf Rate (%) [1, 12] [%]	Degree of Disease Occurrence [1, 14]	Disease Leaf Rate (%) [1, 14] [%]	Degree of Disease Occurrence [1, 15]	Disease Leaf Rate (%) [1, 15] [%]	Degree of Disease Occurrence [1, 16]	Disease Leaf Rate (%) [1, 16] [%]	Degree of Disease Occurrence [1, 17]	Disease Leaf Rate (%) [1, 17] [%]	Degree of Disease Occurrence [1, 18]	Disease Leaf Rate (%) [1, 18] [%]	further results
N#Cc1snc(Cl)c1Cl [Compound (2)]	–	–	–	–	–	–	–	–	–	–	–	–	Degree of Disease Occurrence [1, 3]: 59.4; Disease Leaf Rate (%) [1, 3]: 100.0%; Degree of Disease Occurrence [1, 4]: 56.3; Disease Leaf Rate (%) [1, 4]: 100.0%; Degree of Disease Occurrence [1, 5]: 47.9; Disease Leaf Rate (%) [1, 5]: 95.8%; Degree of Disease Occurrence [1, 6]: 45.9; Disease Leaf Rate (%) [1, 6]: 100.0%; Degree of Disease Occurrence [1, 7]: 41.0; Disease Leaf Rate (%) [1, 7]: 93.8%; Degree of Disease Occurrence [1, 8]: 28.9; Disease Leaf Rate (%) [1, 8]: 87.5%; Degree of Disease Occurrence [2, 9]: 51.0; Disease Leaf Rate (%) [2, 9]: 100.0%; Degree of Disease Occurrence [2, 10]: 37.5; Disease Leaf Rate (%) [2, 10]: 81.3%
CC(=O)OCc1snc(Cl)c1Cl [Compound (4)]	90.6	100	57.2	100	81.7	100.0	71.5	100.0	47.9	100.0	49.1	100.0	Degree of Disease Occurrence [1, 11]: 100.0; Disease Leaf Rate (%) [1, 11]: 100%; Degree of Disease Occurrence [1, 13]: 74.1; Disease Leaf Rate (%) [1, 13]: 100%
O=C(OCc1snc(Cl)c1Cl)c1ccccc1 [Compound (5)]	90.5	100	57.0	95	62.4	100.0	86.7	100.0	58.1	100.0	40.6	95.0	Degree of Disease Occurrence [1, 19]: 100.0; Disease Leaf Rate (%) [1, 19]: 100.0%; Degree of Disease Occurrence [1, 20]: 66.1; Disease Leaf Rate (%) [1, 20]: 100.0%
